Where a name gives a salt, the structure may show the parent alone. Read-outs that look alike come from different tables or passages of the source.

The subject of assay [1] is HepG2 cells. Conditions: for % Max response: HepG2 cells.
Description: (§1) Growth medium was made with Dulbecco's Modified Eagle Medium with 10% fetal bovine serum (FBS).
Assay [2] relates to P. falciparum Dd2 gametocytes. Briefly: alamarBlue gametocyte viability assay, strain Dd2. The format is cell-based, Plasmodium falciparum. (Alamar Blue is a resazurin reagent that responds to reducing activity.)
Protocol: (§2) Briefly, gametocyte cultures were set up at 0.1% parasitemia and on days 9–10 treated with 50 mM N-acetylglucosamine (NAG) to block further asexual growth. Stage III–V gametocytes were isolated by Percoll density gradient centrifugation on day 12 and returned to culture for 24 hrs before being used in the assay[9].
(§3) Briefly, 2.5 μl/well incomplete medium was dispensed into each well of 1,536-well plates using the Multidrop Combi followed by 23 nl compound transferring using the NX-TR Pintool (WAKO Scientific Solutions, San Diego, CA). Then, 2.5 μl/well of gametocytes was dispensed with a seeding density of 20,000 cells/well using the Multidrop Combi. The assay plates were incubated for 72 hrs at 37°C with 5% CO2.
Assay [3] deals with P. falciparum HB3 gametocytes. Kind of assay: alamarBlue gametocyte viability assay, strain HB3. The format is cell-based, Plasmodium falciparum.
Protocol: as §2, §3
The test system of assay [4] is P. falciparum 3D7 gametocytes. Kind of assay: alamarBlue gametocyte viability assay, strain 3D7. It is filed as cell-based, Plasmodium falciparum.
The subject of assay [5] is P. falciparum asexual parasites. Set-up: method as in earlier work. To be noted: SI Table 3, previous screens, cited from earlier work; for IC50: read-out: Activity against asexual parasites IC50.
The test system of assay [6] is HepG2 cells. Briefly: cells. To be noted: Homo sapiens; for Emax: HepG2, read-out: % Max response; for IC50: HepG2, read-out: IC50 in HepG2 cells.
Description: as §1
The mark [7] stands for this setting: 11 concentrations, 1:3 dilution, Inactive = no significant activity at 46 µM.
Where [8] appears, read: Plasmodium falciparum, 3D7, SI Table 3, structure clusters, read-out: Activity against gametocytes Efficacy (% response).
Where [9] appears, read: Plasmodium falciparum, 3D7, SI Table 3, structure clusters, read-out: Activity against gametocytes IC50.
Setting [10] is: P. falciparum 3D7 gametocytes, mean of at least 3 independent experiments, read-out: Gametocyte IC50.
[11] abbreviates: SI Table 3, structure clusters, read-out: Activity against gametocytes IC50.
Where [12] appears, read: Plasmodium falciparum, DD2, strain profiling; 11 concentrations, 1:3 dilution, three times; read-out: Dd2-gametocytes IC50.
The mark [13] stands for this setting: Plasmodium falciparum, HB3, strain profiling; 11 concentrations, 1:3 dilution, three times; read-out: HB3-gametocytes IC50.
Setting [14] is: Plasmodium falciparum, 3D7, P. falciparum 3D7 gametocytes, mean of at least 3 independent experiments, read-out: Gametocyte IC50.

A word on the IC50: it is the concentration that inhibits the measured activity by half. For Plicamycin, the “IC50 in HepG2 cells” value in assay [1] (setting [7]) was “Inactive”. Besides, the “% Max response” value in assay [1] stood at 3%. For the same compound, the half-maximal inhibitory concentration (IC50) is 2.35 µM in assay [2] (read-out: Dd2-gametocytes IC50; strain profiling; 11 concentrations, 1:3 dilution, three times); 2.96 µM in assay [3] (read-out: HB3-gametocytes IC50; strain profiling; 11 concentrations, 1:3 dilution, three times); 0.833 µM in assay [4] (read-out: Gametocyte IC50, P. falciparum 3D7 gametocytes, mean of at least 3 independent experiments).
As for `CO[C@]12C[C@@H](COC(=O)c3cncc(Br)c3)CN(C)[C@@H]1Cc1cn(C)c3cccc2c13` [Nicergoline, reference compound], in assay [5], the “Activity against asexual parasites Efficacy (% response)” value is “inactive” and the “Activity against asexual parasites IC50” value was “inactive”. In assay [4] (setting [8]), the Emax came to 39.4%. Besides, in assay [4] (setting [9]), the IC50 is 22.4 µM.
As for `COC(=O)C[C@](O)(CCCC(C)(C)O)C(=O)O[C@@H]1C(OC)=C[C@]23CCCN2CCc2cc4c(cc2[C@H]13)OCO4` [Omacetaxine], the “IC50 in HepG2 cells” value in assay [1] (setting [7]) was “Curve not complete”. Further, the “% Max response” value in assay [1] is -27%. In addition, in assay [4] (setting [10]), the IC50 came to 0.083 µM.
Regarding `CNCCCC1c2ccccc2C=Cc2ccccc21` [Protriptyline hydrochloride], in assay [5], the “Activity against asexual parasites Efficacy (% response)” value was “inactive” and the “Activity against asexual parasites IC50” value was “inactive”. In addition, the Emax in assay [4] (setting [8]) is 81.7%.
On to `CC1(C)OC2=C(C(=O)c3ccccc3C2=O)[C@H](NCc2ccccc2)[C@@H]1O` [CAY10581], for which the “% Max response” value in assay [1] is -86%. The IC50 was found to be 17.1 µM in assay [1] (read-out: IC50 in HepG2 cells, 11 concentrations, 1:3 dilution, Inactive = no significant activity at 46 µM); 2.35 µM in assay [2] (strain profiling; 11 concentrations, 1:3 dilution, three times; read-out: Dd2-gametocytes IC50); 0.662 µM in assay [3] (strain profiling; 11 concentrations, 1:3 dilution, three times; read-out: HB3-gametocytes IC50); 0.743 µM in assay [4] (setting [10]).
On to `CC(CN(C)C)CN1c2ccccc2CCc2ccccc21` (stereo not shown) [Trimipramine maleate, reference compound], for which, in assay [5], the “Activity against asexual parasites IC50” value is “inactive” and the IC50 is 30.7 µM. The Emax in assay [4] (setting [8]) was determined as 47%. For the same compound, in assay [4] (setting [9]), the IC50 is 22.4 µM. Further, in assay [4] (SI Table 3, structure clusters), the “Activity against gametocytes IC50” value was “inactive”.
Consider `CNCCC=C1c2ccccc2CCc2ccccc21` [Nortriptyline hydrochloride, reference compound], for which, in assay [5], the “Activity against asexual parasites Efficacy (% response)” value was “inactive”. For the same compound, the “Activity against asexual parasites IC50” value in assay [5] is “inactive”. Further, the Emax in assay [4] (setting [8]) came out at 111%. The values for the IC50 in assay [4] (setting [9]) and in assay [4] (setting [11]) were 22.4 µM and 35.5 µM, respectively.
In the case of `CN1C[C@H](CNC(=O)OCc2ccccc2)C[C@@H]2c3cccc4c3c(cn4C)C[C@H]21` [Metergoline, reference compound], the “Activity against asexual parasites Efficacy (% response)” value in assay [5] is recorded as -71.24 % response. Also, the IC50 in assay [5] is 12.6 µM; in assay [4] (setting [9]), 12.6 µM; in assay [4] (setting [11]) it was 22.4 µM.
For `CCCCN(CCCC)CC(O)c1cc(Cl)cc2c1-c1ccc(Cl)cc1/C2=C/c1ccc(Cl)cc1` (stereo not shown) [Lumefantrine], the half-maximal inhibitory concentration (IC50) was 0.013 µM in assay [2] (setting [12]); 0.02 µM in assay [5]; 0.033 µM in assay [3] (setting [13]); 0.059 µM in assay [4] (Plasmodium falciparum, 3D7, strain profiling, 11 concentrations, 1:3 dilution, three times, read-out: 3D7-gametocytes IC50). Further, the “Activity against asexual parasites Efficacy (% response)” value in assay [5] was -93.57 % response. Further, the Emax in assay [4] (setting [8]) is 76.5%.
Turning to `CCCN1C[C@H](CSC)C[C@@H]2c3cccc4[nH]cc(c34)C[C@H]21` [Pergolide methanesulfonate, reference compound], in assay [5], the “Activity against asexual parasites Efficacy (% response)” value was “inactive” and the “Activity against asexual parasites IC50” value was “inactive”. The Emax in assay [4] (setting [8]) was 83.5%. Also, the IC50 in assay [4] (setting [9]) amounted to 22.4 µM. Further, the “Activity against gametocytes IC50” value in assay [4] (SI Table 3, structure clusters) is “inactive”.
In the case of `CN1CCC(=C2c3ccccc3C=Cc3ccccc32)CC1` [Cyproheptadine hydrochloride], in assay [5], the “Activity against asexual parasites Efficacy (% response)” value is “inactive” and the “Activity against asexual parasites IC50” value was “inactive”. In addition, the “Activity against gametocytes Efficacy (% response)” value in assay [4] (SI Table 3, structure clusters) is on record as -80.99 % response.
For `CNCCCN1c2ccccc2CCc2ccccc21` [Desipramine hydrochloride], in assay [5], the “Activity against asexual parasites Efficacy (% response)” value is “inactive” and the “Activity against asexual parasites IC50” value is “inactive”. In addition, in assay [4] (setting [8]), the Emax is 101%.
In the case of `CN(C)CCCN1c2ccccc2C(C)(C)c2ccccc21` [Dimetacrine, reference compound], in assay [5], the “Activity against asexual parasites Efficacy (% response)” value is “inactive” and the “Activity against asexual parasites IC50” value is “inactive”. Moreover, the Emax in assay [4] (Plasmodium falciparum, 3D7, read-out: Activity against gametocytes Efficacy (% response), SI Table 3, structure clusters) worked out at 77%. For the same compound, the half-maximal inhibitory concentration (IC50) in assay [4] (Plasmodium falciparum, 3D7, read-out: Activity against gametocytes IC50, SI Table 3, structure clusters) was 22.4 µM.
As to `CN(CCCN1c2ccccc2CCc2ccccc21)CC(=O)c1ccc(Cl)cc1` [Lofepramine hydrochloride, reference compound], the “Activity against asexual parasites Efficacy (% response)” value in assay [5] is -103.99 % response. The IC50 in assay [5] was 10 µM; in assay [4] (setting [9]), 19.9 µM. The Emax in assay [4] (setting [8]) is 103%.
As for `CN(C)CCC=C1c2ccccc2C=Cc2ccccc21` [Cyclobenzaprine hydrochloride, reference compound], in assay [5], the “Activity against asexual parasites Efficacy (% response)” value is “inactive” and the “Activity against asexual parasites IC50” value was “inactive”. The Emax in assay [4] (setting [8]) is 94.8%. Besides, in assay [4] (setting [9]), the 50% inhibitory concentration (IC50) was determined as 5.62 µM. Moreover, the IC50 in assay [4] (setting [11]) stood at 10 µM.
Take `CN(C)CCCN1c2ccccc2CCc2ccc(Cl)cc21` [Clomipramine hydrochloride]: in assay [5], the “Activity against asexual parasites Efficacy (% response)” value is “inactive” and the “Activity against asexual parasites IC50” value is “inactive”.
With `NC(=O)N1c2ccccc2CC(=O)c2ccccc21` [Oxcarbazepine, reference compound], in assay [5], the “Activity against asexual parasites Efficacy (% response)” value is “inactive” and the “Activity against asexual parasites IC50” value is “inactive”. In assay [4] (SI Table 3, structure clusters), the “Activity against gametocytes Efficacy (% response)” value was “inactive” and the “Activity against gametocytes IC50” value was “inactive”.
`COCCn1c2c([n+](Cc3cnccn3)c1C)C(=O)c1ccccc1C2=O` [YM155]: in assay [6], the Emax is -92%. Besides, the half-inhibitory concentration (IC50) in assay [6] worked out at 4.69 µM; in assay [2] (setting [12]), 0.526 µM; in assay [3] (setting [13]), 0.304 µM; in assay [4] (setting [14]), 0.372 µM.
Regarding `CN(C)C/C=C/C(=O)Nc1cc2c(Nc3ccc(F)c(Cl)c3)ncnc2cc1O[C@H]1CCOC1` [Afatinib], the Emax in assay [6] is -100%. Also, the IC50 in assay [6] worked out at 18.7 µM; in assay [2] (setting [12]) it was 2.96 µM; in assay [3] (setting [13]), 4.18 µM; in assay [4] (setting [14]), 0.935 µM.
As to `CN(C)CCCN1c2ccccc2CCc2ccccc21` [Imipramine hydrochloride], in assay [5], the “Activity against asexual parasites Efficacy (% response)” value was “inactive” and the “Activity against asexual parasites IC50” value is “inactive”.
Take `COc1ccc(C2NC(=S)N3C(c4ccc(OC)c(OC)c4)NC(=S)N23)cc1OC` (stereo not shown) [NSC174938]: the “IC50 in HepG2 cells” value in assay [1] (setting [7]) is “Inactive”.
As for `C=CCN1C[C@H](C(=O)N(CCCN(C)C)C(=O)NCC)C[C@@H]2c3cccc4[nH]cc(c34)C[C@H]21` [Cabergoline, reference compound], the “Activity against asexual parasites Efficacy (% response)” value in assay [5] is recorded as -63.65 % response. The half-maximal inhibitory concentration (IC50) in assay [5] and in assay [4] (setting [9]) was 17.8 µM in each case. Besides, in assay [4] (setting [8]), the Emax stood at 80.1%.
As for `CCN(CC)C(=O)N[C@H]1C[C@@H]2c3cccc4[nH]cc(c34)C[C@H]2N(C)C1` [Terguride, reference compound], in assay [5], the “Activity against asexual parasites Efficacy (% response)” value was “inactive” and the “Activity against asexual parasites IC50” value was “inactive”. In assay [4] (setting [8]), the Emax was 80.7%. In assay [4] (setting [9]), the half-inhibitory concentration (IC50) was 28.2 µM.
As for `CN(C)CCC=C1c2ccccc2CCc2ccccc21` [Amitriptyline hydrochloride], in assay [5], the “Activity against asexual parasites Efficacy (% response)” value is -82.37 % response and the IC50 is 11.2 µM.
In the case of `CN1CCC(=C2c3ccccc3C=Cc3ccccc32)CC1` [Cyproheptadine], in assay [5], the “Activity against asexual parasites Efficacy (% response)” value was “inactive” and the “Activity against asexual parasites IC50” value is “inactive”. Moreover, in assay [4] (SI Table 3, structure clusters), the “Activity against gametocytes Efficacy (% response)” value is -122.81 % response.
Consider `CN(C)CCCN1c2ccccc2CCc2ccc(Cl)cc21` [Clomipramine], for which, in assay [5], the “Activity against asexual parasites Efficacy (% response)” value is “inactive” and the “Activity against asexual parasites IC50” value is “inactive”.
As to `CN(C)CCC=C1c2ccccc2C(C)(C)c2ccccc21.Cl` [Melitracen hydrochloride, reference compound], in assay [5], the “Activity against asexual parasites Efficacy (% response)” value is “inactive” and the “Activity against asexual parasites IC50” value is “inactive”. In assay [4] (SI Table 3, structure clusters), the “Activity against gametocytes Efficacy (% response)” value was -103.56 % response. Besides, in assay [4] (setting [11]), the IC50 is 35.5 µM.
As to `CN1C[C@@H](NS(=O)(=O)N(C)C)C[C@@H]2c3cccc4c3c(cn4C)C[C@H]21` [Mesulergine, reference compound], in assay [5], the “Activity against asexual parasites Efficacy (% response)” value was “inactive” and the “Activity against asexual parasites IC50” value is “inactive”. Moreover, in assay [4] (setting [8]), the Emax is 64%. Besides, the IC50 in assay [4] (setting [9]) turned out to be 35.5 µM.

(Values after PMC3894558, “Chemical signatures and new drug targets for gametocytocidal drug development” (Scientific Reports, 2014).)
